{
  "source": "patent US7501513B2",
  "about": "“Immunosuppressive effects of pteridine derivatives” (4 AZA Bioscience NV, priority 2003, dated 2009)",
  "key": {"[1]": {"system": "IL-5", "experiment": "Inhibition of the release of IL-5", "assay_type": "cell-based", "conditions": "at 0.1 μM/l", "description": "(§1) 2-amino-4-morpholino-6-(3,4-dimethoxyphenyl)pteridine (a compound known from WO 00/39129) was tested, according to experimental procedures well established in the art, in the inhibition of two cytokines, IL-5 and IL-10, known to be involved in the development of asthma and other forms of severe allergic conditions."}, "[2]": {"system": "IL-10", "experiment": "Inhibition of the release of IL-10", "assay_type": "cell-based", "conditions": "at 0.1 μM/l", "description": "as §1"}, "[3]": {"system": "B16BL/6 melanoma cells", "experiment": "Inhibition of the metastasis of melanoma cells in mice", "assay_type": "in vivo, C57BL/6 mice", "conditions": "20 mg/kg intraperitoneously, three times a week for two weeks; control group 80%", "description": "C57BL/6 mice were injected with 1.5×10^6 B16BL/6 melanoma cells and were divided into 2 groups. Five days after the injection of the tumor cells, the two groups of animals were administered intraperitoneously, three times a week for two subsequent weeks, either (treated group) 20 mg/kg of 2-amino-4-morpholino-6-(3,4-dimethoxyphenyl)pteridine (a compound known from WO 00/39129) or (control group) the vehicle (5% DMSO in phosphate buffered saline). At the end of the experiment, all surviving tumor-bearing mice were sacrificed and examined in order to assess the absence or presence of the black metastases in inguinal and/or para-aortic lymph nodes (macroscopic metastasis). The findings were confirmed by histology, and the experiment done twice."}, "[4]": {"system": "Peripheral blood mononuclear cells", "experiment": "Mixed lymphocyte reaction (MLR) test", "assay_type": "cell-based, human", "conditions": "Homo sapiens, PBMC; Table 1; 50% suppression of the MLR", "description": "(§2) Pteridine derivatives were first dissolved (10 mM) in dimethylsulfoxide (hereinafter referred as DMSO) and further diluted in culture medium before use for the following in vitro experiments. The commercially available culture medium consisted of RPMI-1640+10% foetal calf serum (FCS). Some pteridine derivatives described the previous examples were tested in the following lymphocyte activation tests:\n(§3) Peripheral blood mononuclear cells (hereinafter referred as PBMC) were isolated from heparinized peripheral blood by density gradient centrifugation over Lymphoprep (Nycomed, Maorstua, Norway). Allogeneic PBMC or Eppstein-Barr Virus-transformed human B cells [commercially available under the trade name RPMI1788 (ATCC name CCL156)] which strongly express B7-1 and B7-2 antigens were used as stimulator cells after irradiation with 30 Gy. MLR was performed in triplicate wells. After 5 days incubation at 37° C., 1 μCi [^3H]-thymidine was added to each cup. After a further 16 hours incubation, cells were harvested and counted in a β-counter. Inhibition of proliferation by a compound (drug) described in some of the previous examples was counted using the formula:\n(§4) [formula] wherein cpm is the thymidine count per minute. The MLR assay is regarded by those skilled in the art as an in vitro analogue of the transplant rejection since it is based on the recognition of allogeneic major histocompatibility antigens on the stimulator leukocytes, by responding lymphocytes. Assays for CD3 and CD 28\nPteridine derivatives were first dissolved (10 mM) in dimethylsulfoxide (hereinafter referred as DMSO) and further diluted in culture medium before use for the following in vitro experiments. The commercially available culture medium consisted of RPMI-1640+10% foetal calf serum (FCS). Some pteridine derivatives described in the previous examples (as indicated in table 3 below) were tested in the following mixed lymphocyte reaction (MLR) assay.\nas §3, with “CCL156)]which” for “CCL156)] which”\nas §4, with “lymphocytes.” for “lymphocytes. Assays for CD3 and CD 28”"}, "[5]": {"system": "Highly purified T cells stimulated by anti-CD3 mAb", "experiment": "CD3 assay: T-cell proliferation stimulated by immobilized anti-CD3 mAb + PMA (BrdU)", "assay_type": "cell-based, human", "conditions": "Homo sapiens; 50% reduction in T-cell proliferation; read-out: CD 3 IC50", "description": "as §2\n(§5) T cells were purified by removing non-T cells. Briefly, monocytes were removed by cold agglutination. The resulting lymphoid cells were further purified by a cell enrichment immunocolumn [Cellect Human T commercially available from Biotex, Edmonton, Alberta, Canada)] by a process of negative selection. More than 95% of the B cells were removed with this procedure. After depletion, the resulting T cell preparation was highly purified, i.e. these cells could not be activated by phytohaemagglutinin (PHA) or rIL-2 alone at concentrations capable of stimulating RBMC prior to deletion.\n(§6) Highly purified T cells (10^6/ml) were stimulated by immobilized anti-CD3 or anti-CD28 monoclonal antibodies (hereinafter referred as mAb) in the presence of phorbol myristate acetate (hereinafter referred as PMA). Anti-CD3 mAb (available from CLB, Amsterdam, Netherlands) were fixed on a 96-microwell plates by incubating the wells with 50 μl of mAb solution (1/800 dilution in culture medium). For anti-CD28 mAb (available from CLB, Amsterdam, Netherlands) 50 μl (1/650 dilution in culture medium) was added directly to the wells. Further, a 20 μl PMA (commercially available from Sigma, St. Louis, Mo., USA) solution (final concentration: 0.5 ng/ml) was added. Subsequently, 20 μl of a pteridine derivative described in the previous examples were added by serial dilution in triplicate wells. Finally 100 μl of the T-cell suspension (10^6/ml) was added. After 48-hour incubation at 37° C. in 5% CO2, 20 μl of a bromo-deuridine (hereinafter referred as BrdU) 100 μM solution (commercially available as Cell Proliferation Elisa from Boehringer-Mannheim Belgium) was added to each well. After a further overnight incubation, T-cell proliferation was measured using a calorimetric immuno-assay for qualification of cell proliferation based on the incorporation of BrdU during DNA synthesis. Optical density (hereinafter referred as OD) was measured by a Behring EL311 plate reader at 450 nm (reference wavelength: 690 nm). Inhibition of proliferation by the pteridine derivative (drug) was counted while using the formula: […]"}, "[6]": {"system": "Highly purified T cells stimulated by anti-CD28 mAb", "experiment": "CD28 assay: T-cell proliferation stimulated by anti-CD28 mAb + PMA (BrdU)", "assay_type": "cell-based, human", "conditions": "Homo sapiens; 50% reduction in T-cell proliferation", "description": "as §2, §5, §6"}, "[7]": {"system": "Peripheral blood T cells", "experiment": "In vivo leukocyte activation and immunosuppression whole blood assay (ConA stimulation, FACScan)", "design": "species or system mice", "conditions": "30 mg/kg per day i.p.; for TCR+, CD69+ peripheral blood T cells after ConA: 2 hours before ConA, baseline 0.5%; for TCR+, CD69+ peripheral blood T cells after ConA / TCR+, IL-2R+ peripheral blood T cells after ConA: untreated up to 3%; for ConA-stimulated CD71 up-regulation on T cells: baseline 4.8%, untreated 9.3% and 5.5% after 1 and 2 days; for CD134 expression on peripheral blood T cells after ConA: untreated up to 6.6% within 2 days, baseline […]", "description": "Inbred mice (e.g. AKR strain), weighting from 20 to 30 g, were stimulated by intraperitoneal injection with mitogens specific for T cells (e.g. Concanavalin A, hereinafter referred as ConA, 500 μg per mouse), B cells or monocytes/macrophages (e.g. LPS 20 μg per mouse). […] Peripheral blood was collected 24, 36, 48, and respectively 72 hours after stimulation for immune fluorescence staining and FACScan analysis.\nFACScan analysis proceeded as follows: heparinized whole blood (50 μl) was removed of red blood cells by incubation with a lysing buffer. The remaining leukocytes were double-stained with phycoerythrin-conjugated antibodies specific for T cells (e.g. T cell receptor TCR), B cells (e.g. CD45R/B220 (commercially available from Pharmingen) or monocytes/macrophages (e.g. F4/80) (commer-cially available from Serotec) in combination with FITC-conjugated antibodies against various cell surface markers such as CD69 (early activation molecule), CD25 (IL-2 receptor), CD71 (transferring receptor), B7-1/2 (ligand for the co-stimulatory molecule CD28) and CD11b (complement receptor 3). Cells were examined by flow cytometry using CellQuest software (commercially available from Decton Dickinson)."}},
  "note": "pIC50: −log10 of the molar value.",
  "data": [
    {"smiles": "COc1ccc(-c2cnc3nc(N)nc(N4CCOCC4)c3n2)cc1OC", "note": "[2-amino-4-morpholino-6-(3,4-dimethoxyphenyl)pteridine]", "values": [
      {"measurement": "inhibition at 0.1 µM", "setting": "[1]", "value": 70, "unit": "%"},
      {"measurement": "inhibition at 0.1 µM", "setting": "[2]", "value": 39, "unit": "%"},
      {"measurement": "animals with metastases (inguinal and/or para-aortic lymph nodes)", "setting": "[3]", "value": 33, "unit": "%"}
    ]},
    {"smiles": "CCOc1nc(N)nc2ncc(-c3ccc(OC)c(OC)c3)nc12", "note": "[Example 30, 2-amino-6-(3,4-dimethoxyphenyl)-4-ethoxy-pteridine]", "values": [
      {"measurement": "pIC50", "setting": "[4]", "value": 6.05},
      {"measurement": "pIC50", "setting": "[5]", "value": 6.15},
      {"measurement": "pIC50", "setting": "[6]", "value": 6.15},
      {"measurement": "TCR+, CD69+ peripheral blood T cells after ConA", "setting": "[7]", "value": 1.6, "unit": "%"},
      {"measurement": "ConA-stimulated CD71 up-regulation on T cells", "setting": "[7]", "value": "baseline levels"},
      {"measurement": "TCR+, IL-2R+ peripheral blood T cells after ConA", "setting": "[7]", "value": 1.5, "unit": "%"},
      {"measurement": "CD134 expression on peripheral blood T cells after ConA", "setting": "[7]", "value": 3.5, "unit": "%"}
    ]},
    {"smiles": "COc1ccc(-c2cnc3nc(N)nc(OC(C)C)c3n2)cc1OC", "note": "[Example 45, 2-amino-6-(3,4-dimethoxyphenyl)-4-isopropoxypteridine]", "values": [
      {"measurement": "pIC50", "setting": "[4]", "value": 6.40},
      {"measurement": "pIC50", "setting": "[5]", "value": 5.17},
      {"measurement": "pIC50", "setting": "[6]", "value": 5.77},
      {"measurement": "TCR+, CD69+ peripheral blood T cells after ConA", "setting": "[7]", "value": 2.4, "unit": "%"},
      {"measurement": "ConA-stimulated CD71 up-regulation on T cells", "setting": "[7]", "value": "baseline levels"},
      {"measurement": "TCR+, IL-2R+ peripheral blood T cells after ConA", "setting": "[7]", "value": 1.7, "unit": "%"},
      {"measurement": "CD134 expression on peripheral blood T cells after ConA", "setting": "[7]", "value": 4.2, "unit": "%"}
    ]}
  ]
}
